Assay results from PMC9570042, “Impairment of Nucleolin Activity and Phosphorylation by a Trachylobane Diterpene from Psiadia punctulata in Cancer Cells” (International Journal of Molecular Sciences, 2022).

What was measured:
Jurkat cells = assay: MTT-based proliferation assay, Jurkat cells; type: cell-based; conditions: Homo sapiens, read-out: IC50, inhibition of proliferation (MTT)
Akt mRNA = assay: Real-time quantitative PCR of Akt mRNA in HeLa cells; type: cell-based, human; conditions: 20 μM, 4 h and 8 h
From the text: A significant validation of the proposed model was sought through specific in-cell biological assays. hNcl is a multifunctional protein involved in a number of cell pathways, depending on its cellular localization. However, one of the most relevant roles probably played by this protein is mRNA chaperone activity carried out through the interaction of the protein RBDs with the 3′-untranslated region of several target mRNAs. As hNcl has been reported to bind the mRNAs encoding for Bcl-2 [11] and Akt its inhibition can result in the destabilization of these two messengers.
Total RNA was isolated. Total RNA was isolated from cultured using Trizol Reagent (Life Technologies, Grand Island, NY, USA) according to the manufacturer instructions and spectrophotometrically quantified […] and assessed by agarose gel electrophoresis. […] To quantify specific mRNAs, real-time PCR assays were conducted using the following primer sets: forward Akt: 5′-TCTACACCCACAGATGACAG-3′; reverse Akt: 5′-CTCAAATGCACCCGAGAAAT-3′; forward Bcl-2: 5′-GGAAGTGAACATTTCGGTGAC-3′; reverse Bcl-2: 5′-CTCCATCAGCTTCCAGACAT-3′; forward 18S 5′-CGATGCTCTTAGCTGAGTGT-3′; reverse 18S 5′-GGTCCAAGAATTTCACCTCT-3′.

Akt = assay: Western blot of Akt protein in HeLa cells; type: cell-based, human
hNcl [1] = assay: Western blot of hNcl and phosphorylated hNcl in HeLa cells; type: cell-based, human; conditions: cancer cells
From the text: Finally, we determined whether the treatment with 12 could affect hNcl expression, phosphorylation, and cellular localization.

HeLa cells = assay: Apoptosis analysis, Annexin V-FITC/PI and Parp/pro-Caspase 3 cleavage, HeLa cells; type: cell-based, human
Protocol: HeLa cells were seeded at 5.0 × 10^5 in 100 mm culture dishes. The day after, the cells were treated with DMSO and 12 at 10 μM and 20 μM for 48 h. The cell cycle was evaluated by propidium iodide (PI) staining of permeabilized cells (BD FACSCalibur flow cytometer, Becton Dickinson, San Jose, CA, USA). Data from 5000 events per sample were collected. The percentages of the elements in the hypodiploid region and in G0/G1, S, and G2/M phases of the cell cycle were calculated using the CellQuest and MODFIT software, respectively. The apoptosis analysis was carried out according to the protocol described in Annexin V, FITC Apoptosis Detection Kit (Dojindo EU GmbH, Munich, Germany). The samples were detected by Flow Cytometry (BD FACSCalibur flow cytometer, Becton Dickinson, San Jose, CA, USA) and analyzed by BD FACSuite software.

hNcl [2] = target: T1, hNcl (Homo sapiens, UniProt P19338); assay: DARTS experiment in HeLa cells; type: cell-based; set-up: endogenous in cells; host or cells: HeLa (cervical carcinoma); conditions: 5 or 20 μM, 2 h, subtilisin
Protocol: HeLa cells were seeded at 1.5 × 10^6 in 100 mm culture dishes and treated with compound 12 (5 or 20 μM) or 0.1% DMSO for 2 h at 37 °C. The HeLa cells were lysed in RIPA buffer (10 mM Tris HCl pH 7.6, 1 mM EDTA, 1% Triton X-100, 0.1% sodium deoxycholate, 0.1% SDS, 140 mM sodium chloride and 1 mM PMSF) supplemented with phosphatase inhibitors. The samples underwent proteolysis with subtilisin (enzyme:lysate 1:6000 w/w) for 30 min, and hydrolysis was stopped by adding Laemmli buffer 4× and incubating the mixture at 95 °C for 5 min. Finally, the samples were fractionated via SDS-PAGE and analyzed by Western blot. Densitometry of bands was performed with the ImageJ software. Experiments were performed in triplicate.
Target sequence in this assay (P19338 2-710): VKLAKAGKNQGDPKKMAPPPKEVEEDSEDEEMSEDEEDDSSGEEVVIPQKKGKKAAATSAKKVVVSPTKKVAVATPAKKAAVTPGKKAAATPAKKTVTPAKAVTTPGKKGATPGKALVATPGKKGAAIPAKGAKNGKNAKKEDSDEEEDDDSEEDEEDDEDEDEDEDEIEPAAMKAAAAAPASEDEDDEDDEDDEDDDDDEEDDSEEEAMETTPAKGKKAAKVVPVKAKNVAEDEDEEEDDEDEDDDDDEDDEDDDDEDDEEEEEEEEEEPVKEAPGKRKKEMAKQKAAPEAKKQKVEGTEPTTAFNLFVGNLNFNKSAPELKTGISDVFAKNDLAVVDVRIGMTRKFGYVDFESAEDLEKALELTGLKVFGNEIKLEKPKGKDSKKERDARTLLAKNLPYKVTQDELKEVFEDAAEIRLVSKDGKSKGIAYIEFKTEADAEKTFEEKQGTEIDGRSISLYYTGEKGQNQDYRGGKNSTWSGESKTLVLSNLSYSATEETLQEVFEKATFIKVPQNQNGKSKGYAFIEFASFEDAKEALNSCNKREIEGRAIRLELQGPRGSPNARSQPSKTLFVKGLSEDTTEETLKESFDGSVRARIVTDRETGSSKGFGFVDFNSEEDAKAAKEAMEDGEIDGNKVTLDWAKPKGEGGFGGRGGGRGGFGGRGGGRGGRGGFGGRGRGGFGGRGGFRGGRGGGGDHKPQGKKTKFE

hNcl [3] = target: T1, hNcl; assay: CETSA-based EC50 determination in HeLa cells; type: cell-based; set-up: endogenous in cells; host or cells: HeLa (cervical carcinoma); conditions: 2 h, heated at 55.5 °C, read-out: EC50 (concentration producing half of the maximum effect on hNcl stabilization)
Protocol: The 12/hNcl interaction was also investigated using CETSA and its effect on the hNcl denaturation temperature (Tm) in the cells was analyzed. HeLa cells incubated with 12, oridonin or the vehicle were heated to different temperatures in the 38–61 °C range, and the amount of soluble hNcl remaining at each T value was measured. […] Further CETSAs were performed using various concentrations of the compound (1–20 μM) and the amount of hNcl resisting thermal denaturation at 55.5 °C was then reported in a graph as a function of the concentration of 12 used (Figure S3 and Figure 1E). This experiment allowed the calculation of an EC50 (the compound concentration producing half of the maximum effect on hNcl stabilization) of 5 μM.
HeLa cells were seeded at 1.0 × 10^5 in 12-well plates. The treatment was performed for 2 h using compound 12 at the following concentrations: 0.1, 0.5, 1, 2, 5, 10, 15, and 20 μM. Subsequently, the drug-containing media were removed through centrifugation; the cells were washed with PBS, aliquoted in 0.2 mL tubes, and then heated at 55.5 °C (Tm of hNcl) for 3 min. They were then lysed and analyzed, as reported above. The hNcl/Gapdh density ratio measured at the […] concentration producing the maximum stabilizing effect was set as 100%.
Target sequence in this assay (P19338 whole entry): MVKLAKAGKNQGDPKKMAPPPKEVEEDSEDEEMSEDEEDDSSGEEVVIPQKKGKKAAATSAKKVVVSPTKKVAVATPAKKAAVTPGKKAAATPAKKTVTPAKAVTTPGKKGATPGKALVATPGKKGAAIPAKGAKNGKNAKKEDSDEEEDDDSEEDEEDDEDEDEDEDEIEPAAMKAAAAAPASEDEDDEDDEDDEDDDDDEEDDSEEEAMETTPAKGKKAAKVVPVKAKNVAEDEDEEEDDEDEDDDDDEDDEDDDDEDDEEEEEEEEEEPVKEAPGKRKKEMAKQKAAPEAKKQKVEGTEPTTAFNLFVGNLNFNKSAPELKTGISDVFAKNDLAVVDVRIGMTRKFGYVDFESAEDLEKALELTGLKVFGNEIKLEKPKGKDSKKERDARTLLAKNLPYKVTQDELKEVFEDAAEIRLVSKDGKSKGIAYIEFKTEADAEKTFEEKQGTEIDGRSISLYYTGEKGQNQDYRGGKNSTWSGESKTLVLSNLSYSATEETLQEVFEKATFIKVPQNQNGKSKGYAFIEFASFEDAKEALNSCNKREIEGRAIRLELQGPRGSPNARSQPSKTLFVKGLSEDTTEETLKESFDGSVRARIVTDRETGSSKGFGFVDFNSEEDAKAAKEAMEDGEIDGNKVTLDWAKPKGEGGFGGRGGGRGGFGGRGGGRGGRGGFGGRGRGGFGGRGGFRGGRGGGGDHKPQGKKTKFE

For `CC1(CO)CCCC2(C)C1C(O)CC13CC4C(CC12)C4(C(=O)O)C3` (stereo not drawn) [compound 12, 6,19-dihydroxy-ent-trachiloban-17-oic acid], the IC50 (Jurkat cells) was 50 µM, the “number of messengers for Akt” value (Akt mRNA) was “lowered” and the “levels of Akt protein” value (Akt) was “significantly lowers”. For the same compound, the hNcl levels (hNcl [1]; 20 μM, 4, 6, or 16 h) was “did not modify”, the “phosphorylation of hNcl” value (hNcl [1]; 20 μM, 4 h treatment) was “inhibited” and the “increase in early apoptosis” value (HeLa cells; 48 h treatment, Annexin V-FITC/PI) was “approximately 20%”. The “Parp and pro-Caspase 3 cleavage” value (HeLa cells; Western blot) was “observed”, the “hNcl resistance to protease action (DARTS)” value (hNcl [2]) was “significant increase” and the EC50 (hNcl [3]) was 5 µM.
